Measured values published in patent US9072729B2, “Method for treating fibrosis and cancer with imidazolium and imidazolinium compounds” (Agency for Science, Technology and Research, priority 2008, dated 2015).
Where two headings read alike, the source gives them in different places.

Legend:
Assay type in all cases: cell-based, rat
SMAA = experiment: Real-time RT-PCR of SMAA mRNA in HSC T6 cells; settings: 48 h; DBIM 1 mM, DPIM 2 mM, AMIM 50 μM, TMPHIM 50 μM
Method: (§1) FIG. 6. (a) DBZIM and (b) TDBZIM suppressed the mRNA expression of HSC activation markers (GFAP and SMAA) and fibrotic endpoints (col1a1 and fibronectin) in a dosage-dependent manner. […] The ΔΔCt method was used for relative quantification with vehicle control sample being the calibrator. The data were presented as mean and SEM, N=6, *^aP<0.05, *^bP<0.01, *^cP<0.005, and *^dP<0.0005, when compared to the vehicle control. FIG. 7. DBZIM (100 μM) and TDBZIM (100 μM) suppressed (a) GFAP, (b) SMAA, (c) col1a1 and (d) fibronectin mRNA expression in a time-dependent manner. HSC T6 cells were treated with DBZIM and TDBZIM, and assayed after 8, 24 and 48 h. […] FIG. 14. […] (50 μM), […] (50 μM), […] (10 μM) and DBZBIM (100 μM) were dissolved in DMSO with a final DMSO concentration of 0.2% (v/v). DPIM (2 mM), EGCG (25 μM) and DBZIM (100 μM) were dissolved in H2O. β-actin was used as the normalization gene; its expression was constant under the experimental conditions. Relative quantification was normalized against the respective vehicle control. The data were presented as mean and SEM, N=6, *^aP<0.05, *^cP<0.005, and *^dP<0.0005, when compared to the vehicle control. Total RNA was isolated using NucleoSpin RNAII isolation kit ([…], Germany), and quantified by ND-100 spectrophotometer (Nanodrop Technologies, DE, USA). The details of real-time RT-PCR were reported elsewhere (Zhang et al. 2006). Briefly, it was a two-step real-time RT-PCR using Taqman chemistry. Total RNA was first reverse transcribed to cDNA, and real-time PCR was run and detected in ABI 7500 Fast Real-Time PCR System (Applied Biosystems, CA, USA). Primers and probes for rat GFAP, SMAA, collagen Ia1, fibronectin, TGF-β1, TGF-β receptor I (TGFβ RI) and IL-6 were ordered from Taqman's assay-on-demand database. Rat β-actin was used as normalization gene, and its expression level was constant (CT difference was <±0.5) throughout the experimental settings in this study. Relative quantification of target mRNA was calculated using comparative threshold cycle method (ΔΔCT) as described in User Bulletin #2 (ABI Prism 7700 Sequence Detection System). Relative quantification was given by 2^-ΔΔCT to express the up-regulation or down regulation of the target gene under the treatments compared to the control.

col1a1 = experiment: Real-time RT-PCR of col1a1 mRNA in HSC T6 cells; settings: 48 h; DBIM 1 mM, DPIM 2 mM, TMPHIM 50 μM, DPPHIM 10 μM
Method: as §1

fibronectin = experiment: Real-time RT-PCR of fibronectin mRNA in HSC T6 cells; settings: 48 h; DPIM 2 mM, TMPHIM 50 μM, DBZIM 100 μM
Method: as §1

GFAP = experiment: Real-time RT-PCR of GFAP mRNA in HSC T6 cells; settings: 48 h; DPIM 2 mM, AMIM 50 μM, TMPHIM 50 μM, DBZBIM 100 μM
Method: as §1

HSC T6 cells = experiment: MTS based proliferation assay (cytotoxicity) on cultured HSC-T6 cells; settings: read-out: IC50 (toxicity on T6 cells)
Method: FIG. 1. Cytotoxicity of (a) DBZIM and (b) TDBZIM. […] The signal was normalized against a vehicle control treatment (0 μM of compound). The data were obtained from four independent experiments, and presented as mean and standard error or mean (SEM), *^aP<0.05, *^bP<0.01 and *^cP<0.005.
Firstly we assessed the cytotoxicity of DBZIM and TDBZIM on cultured HSC-T6 cells using a 3-(4,5-dimethylthiazol-2-yl)-5-(3-carboxymethoxyphenyl)-2-(4-sulfophenyl)-2H-tetrazolium (MTS) based proliferation assay kit (Promega, Wis., USA). […]

GPx = experiment: Glutathione peroxidase (GPx) activity assay in treated cells; settings: 0.2% (v/v) DMSO vs untreated
Method: (§2) FIG. 4. Effect of DBZIM and TDBZIM on GPx, CAT, SOD and GST. DBZIM affected (a) GPx activity and (c) CAT activity in a dosage-dependent manner. TDBZIM suppressed (b) GPx activity and (d) CAT activity. (e) DBZIM and (f) TDBZIM had little effect on SOD activity. (g) DBZIM induced GST activity. HSC T6 cells were treated with compounds of various concentrations for 48 h, and homogenized by sonication (60% frequency for 30 s) in PBS (pH 7.4, 1 mM of EDTA) for GPx, GST and CAT assays, or in 20 mM of HEPES buffer containing 1 mM of EGTA, 210 mM of mannitol and 70 mM of sucrose (pH 7.2) for SOD assay. Enzyme activity was normalized against total protein. DBZIM was dissolved in DMSO, and TDBZIM was dissolved in H2O. The data were presented as mean and SEM, N=6, *^aP<0.05, *^bP<0.01, *^cP<0.005, and *^dP<0.0005, when compared to the vehicle control.
(§3) Activity levels of three anti-oxidant enzymes, GPx, CAT and SOD, were determined using assay kits from Cayman Chemical. To assay GPx and CAT activities, protein samples were harvested in ice-cold PBS containing 1 mM of EDTA. To assay SOD activity, protein samples were prepared in 20 mM of N-(2-hydroxyethyl)-piperazine-N′-2-ethanesulfonic acid (HEPES) buffer containing 1 mM of ethylene glycol-bis(2-aminoethylether)-N,N,N′,N′-tetraacetic acid (EGTA), 210 mM of mannitol and 70 mM of sucrose. Protein content was determined by BCA assay.
GPx activity was indirectly measured by a coupled reaction with GSH reductase. Oxidized GSH, produced upon reduction of H2O2 by GPx, is recycled to its reduced state by glutathione reductase (GR) and nicotinamide adenine dinucleotide phosphate (NADPH). The oxidation of NAPDH is proportional to the GPx activity, and can be measured as a decrease in absorbance at 340 nm. GPx activity was expressed as nmol/min/mg protein.

CAT = experiment: Catalase (CAT) activity assay in treated cells; settings: 0.2% (v/v) DMSO vs untreated
Method: FIG. 4. […] Enzyme activity was normalized against total protein. DBZIM was dissolved in DMSO, and TDBZIM was dissolved in H2O. The data were presented as mean and SEM, N=6, *^aP<0.05, *^bP<0.01, *^cP<0.005, and *^dP<0.0005, when compared to the vehicle control.
Activity levels of three anti-oxidant enzymes, GPx, CAT and SOD, were determined using assay kits from Cayman Chemical. To assay GPx and CAT activities, protein samples were harvested in ice-cold PBS containing 1 mM of EDTA. […] Protein content was determined by BCA assay.
CAT activity was determined based on reaction of the enzyme with methanol in the presence of H2O2. The formaldehyde produced was measured spectrophotometrically at 540 nm using Purpald as the chromogen. CAT activity was expressed as nmol/min/mg protein.

SOD = experiment: Superoxide dismutase (SOD) activity assay in treated cells; settings: 0.2% (v/v) DMSO vs untreated; not statistically significant
Method: as §2, §3
Total SOD, including all three types of SOD (Cu/Zn-, Mn- and Fe-SOD), was quantified using a tetrazolium salt to detect superoxide radicals generated by xanthine oxidase and hyposanthine. […] SOD activity was expressed as U/mg protein.

HSC-T6 cells = experiment: Glutathione (GSH) and GSSG assays; settings: 0.2% (v/v) DMSO vs untreated
Method: FIG. 3. […] (c) DBZIM and (d) TDBZIM both suppressed cellular GSSG (the oxidation product of GSH). (e) DBZIM and (f) TDBZIM both enhanced the GSH/GSSG ratio. HSC-T6 cells were incubated with compounds of various concentrations for 48 h, and assayed for the total GSH and GSSG amounts. The GSH/GSSG ratio was calculated as (GSH−GSSG)/GSSG. The GSH and GSSG amounts were normalized against the total protein. Note that DBZIM was dissolved in DMSO, and TDBZIM was dissolved in H2O. The data were presented as mean and SEM, N=6, *^aP<0.05, *^bP<0.01, *^cP<0.005, and *^dP<0.0005, when compared to the vehicle control.
Total cellular GSH and GSSG levels were determined by using assay kits from Cayman Chemical (Ann Arbor, Mich., USA) following the manufacturer's instructions. Briefly, HSC-T6 cells treated with DBZIM, TDBZIM, NAC, or EGCG were scalped and homogenized in phosphate buffered saline (PBS) by sonication at 60% frequency for 30 s, and the supernatant was collected after centrifugation at 16,000×g for 10 min at 4° C. Protein content of the samples was determined by bicinchonicic acid (BCA) assay.
For GSH assays, the protein sample was deproteinated by metaphosphoric acid (Aldrich, Catalog No. 23927-5), and the pH was adjusted by triethanolamine (Aldrich, Catalog No. T5830-0) according to the manual. The sample was ready for assaying total GSH including both the reduced and oxidized forms. Quantification of GSSG, exclusive of GSH, was performed by first derivatizing GSH with 2-vinylpyridine and assaying separately. Colorimetric signal was recorded at 405 nm with a Tecan Safire II plate reader. The levels of GSH or GSSG were determined as nmol/μg protein.

[1] = Rattus norvegicus, HSC-T6, HSC T6 cells

| Compound | suppression of SMAA mRNA (SMAA) [%] | suppression of col1a1 mRNA (col1a1) [%] | suppression of GFAP mRNA (GFAP) [%] | IC50 (HSC T6 cells; HSC T6 cells) [µM] | IC50 (HSC T6 cells; [1]) [µM] | other results |
| --- | --- | --- | --- | --- | --- | --- |
| 1,3-bis(2,4,6-trimethylphenyl)-imidazolinium chloride [TMPHIM] | 49 | 62 | 66 | 110 | – | suppression of fibronectin mRNA (fibronectin): 29% |
| 1,3-bis(2,6-diisopropyl-phenyl)-imidazolinium chloride [DPPHIM] | – | 47 | – | 34 | – | – |
| 1,3-di-tert-butylimidazoliniumtetrafluoroborate [DBIM] | 49 | 58 | – | 2000 to 3000 | – | – |
| F[B-](F)(F)F.c1c[n+](C23CC4CC(CC(C4)C2)C3)cn1C12CC3CC(CC(C3)C1)C2 [AMIM, 1,3-bis(1-adamantyl)imidazolium tetrafluoroborate] | 23 | – | 69 | – | 166 | – |
| [Br-].c1ccc(Cn2c[n+](Cc3ccccc3)c3ccccc32)cc1 [DBZBIM, 1,3-bisbenzyl-benzimidazolium bromide] | – | – | 50 | – | 310 | – |
| C[S+](C)[O-] [DMSO, dimethylsulfoxide] | – | – | – | – | – | GPx activity, of the control (GPx): 2.62 times; CAT activity, of the control (CAT): 1.7 fold; increase of SOD activity (SOD): 10%; GSH/GSSG ratio, of the control (HSC-T6 cells): 17%; GSSG amount, of the control (HSC-T6 cells): 4.4 fold; total cellular GSH level, of the control (HSC-T6 cells): 74% |
